Test results: ChEMBL document CHEMBL3885881, “DrugMatrix”

Species on record: Rattus norvegicus
Test: DrugMatrix - Regimen: Daily Repeat
Format: toxicity, organism-based, Sprague-Dawley
Set-up: regimen Daily Repeat, gender Male, age 6-8 weeks
Settings: in vivo, sc, 1.75 mg/kg, route mini-PUMP - SUBCUTANEOUS, dose level High, vehicle 100 % SALINE; for ABSOLUTE BASOPHIL / ABSOLUTE EOSINOPHIL / ABSOLUTE LYMPHOCYTE / ABSOLUTE MONOCYTE / ABSOLUTE SEGMENTED NEUTROPHIL / BASOPHIL / EOSINOPHIL / ERYTHROCYTE COUNT / HEMATOCRIT / HEMOGLOBIN / LEUKOCYTE COUNT / LYMPHOCYTE / MEAN CORPUSCULAR HEMOGLOBIN / MEAN CORPUSCULAR HEMOGLOBIN CONCENTRATION / MEAN CORPUSCULAR VOLUME / MONOCYTE / NEUTROPHIL / NUCLEATED RED BLOOD CELLS / PLATELET COUNT: tissue Blood; for ALANINE AMINOTRANSFERASE / ALBUMIN / ALKALINE PHOSPHATASE / ASPARTATE AMINOTRANSFERASE / BLOOD UREA NITROGEN / CARBON DIOXIDE / CHLORIDE / CHOLESTEROL / CREATININE / GLUCOSE / LACTATE DEHYDROGENASE / LIPASE / PHOSPHORUS / POTASSIUM / SODIUM / TOTAL BILIRUBIN / TOTAL PROTEIN / URIC ACID: tissue Plasma

NC[C@H](O)c1ccc(O)c(O)c1 [NOREPINEPHRINE]
ABSOLUTE BASOPHIL (72 h, time 3 day): 0 CELLS/uL | ABSOLUTE EOSINOPHIL (72 h, time 3 day): 0 CELLS/uL | ABSOLUTE LYMPHOCYTE (72 h, time 3 day): 13450.33 CELLS/uL | ABSOLUTE MONOCYTE (72 h, time 3 day): 275.33 CELLS/uL | ABSOLUTE SEGMENTED NEUTROPHIL (72 h, time 3 day): 1174.33 CELLS/uL | BASOPHIL (72 h, time 3 day): 0% | EOSINOPHIL (72 h, time 3 day): 0% | ERYTHROCYTE COUNT (72 h, time 3 day): 6.14 x10E6/uL | HEMATOCRIT (72 h, time 3 day): 36.87% | HEMOGLOBIN (72 h, time 3 day): 13.53 G/DL | LEUKOCYTE COUNT (72 h, time 3 day): 14.9 x10E3/uL | LYMPHOCYTE (72 h, time 3 day): 90.67% | MEAN CORPUSCULAR HEMOGLOBIN (72 h, time 3 day): 22.03 pg | MEAN CORPUSCULAR HEMOGLOBIN CONCENTRATION (72 h, time 3 day): 36.73 G/DL | MEAN CORPUSCULAR VOLUME (72 h, time 3 day): 60 fL | MONOCYTE (72 h, time 3 day): 2% | NEUTROPHIL (72 h, time 3 day): 7.33% | NUCLEATED RED BLOOD CELLS (72 h, time 3 day): 0.33 /100WBC | PLATELET COUNT (72 h, time 3 day): 1242.33 x10E3/uL | ALANINE AMINOTRANSFERASE (72 h, time 3 day): 42.67 u/L | ALBUMIN (72 h, time 3 day): 4.07 G/DL | ALKALINE PHOSPHATASE (72 h, time 3 day): 322.67 u/L | ASPARTATE AMINOTRANSFERASE (72 h, time 3 day): 89.33 u/L | BLOOD UREA NITROGEN (72 h, time 3 day): 16.67 mg/dL | CARBON DIOXIDE (72 h, time 3 day): 25 mmol/L | CHLORIDE (72 h, time 3 day): 104.33 MEQ/L | CHOLESTEROL (72 h, time 3 day): 72.67 mg/dL | CREATININE (72 h, time 3 day): 0.21 mg/dL | GLUCOSE (72 h, time 3 day): 169 mg/dL | LACTATE DEHYDROGENASE (72 h, time 3 day): 701 u/L | LIPASE (72 h, time 3 day): 9.67 u/L | PHOSPHORUS (72 h, time 3 day): 11.73 mg/dL | POTASSIUM (72 h, time 3 day): 6.75 MEQ/L | SODIUM (72 h, time 3 day): 150.2 MEQ/L | TOTAL BILIRUBIN (72 h, time 3 day): 0.17 mg/dL | TOTAL PROTEIN (72 h, time 3 day): 6.3 G/DL | URIC ACID (72 h, time 3 day): 1.8 mg/dL | ABSOLUTE BASOPHIL (120 h, time 5 day): 0 CELLS/uL | ABSOLUTE EOSINOPHIL (120 h, time 5 day): 0 CELLS/uL | ABSOLUTE LYMPHOCYTE (120 h, time 5 day): 12875 CELLS/uL | ABSOLUTE MONOCYTE (120 h, time 5 day): 478 CELLS/uL | ABSOLUTE SEGMENTED NEUTROPHIL (120 h, time 5 day): 2047 CELLS/uL | BASOPHIL (120 h, time 5 day): 0% | EOSINOPHIL (120 h, time 5 day): 0% | ERYTHROCYTE COUNT (120 h, time 5 day): 6.43 x10E6/uL | HEMATOCRIT (120 h, time 5 day): 38.73% | HEMOGLOBIN (120 h, time 5 day): 14.3 G/DL | LEUKOCYTE COUNT (120 h, time 5 day): 15.4 x10E3/uL | LYMPHOCYTE (120 h, time 5 day): 84.33% | MEAN CORPUSCULAR HEMOGLOBIN (120 h, time 5 day): 22.23 pg | MEAN CORPUSCULAR HEMOGLOBIN CONCENTRATION (120 h, time 5 day): 36.93 G/DL | MEAN CORPUSCULAR VOLUME (120 h, time 5 day): 60.27 fL | MONOCYTE (120 h, time 5 day): 3% | NEUTROPHIL (120 h, time 5 day): 12.67% | NUCLEATED RED BLOOD CELLS (120 h, time 5 day): 0 /100WBC | PLATELET COUNT (120 h, time 5 day): 1321.67 x10E3/uL | ALANINE AMINOTRANSFERASE (120 h, time 5 day): 45 u/L | ALBUMIN (120 h, time 5 day): 4.47 G/DL | ALKALINE PHOSPHATASE (120 h, time 5 day): 289.33 u/L | ASPARTATE AMINOTRANSFERASE (120 h, time 5 day): 74.33 u/L | BLOOD UREA NITROGEN (120 h, time 5 day): 14.67 mg/dL | CARBON DIOXIDE (120 h, time 5 day): 28 mmol/L | CHLORIDE (120 h, time 5 day): 103 MEQ/L | CHOLESTEROL (120 h, time 5 day): 70.67 mg/dL | CREATININE (120 h, time 5 day): 0.13 mg/dL | GLUCOSE (120 h, time 5 day): 203 mg/dL | LACTATE DEHYDROGENASE (120 h, time 5 day): 122 u/L | LIPASE (120 h, time 5 day): 9.33 u/L | PHOSPHORUS (120 h, time 5 day): 12.63 mg/dL | POTASSIUM (120 h, time 5 day): 6.59 MEQ/L | SODIUM (120 h, time 5 day): 150.5 MEQ/L | TOTAL BILIRUBIN (120 h, time 5 day): 0.17 mg/dL | TOTAL PROTEIN (120 h, time 5 day): 6.8 G/DL | URIC ACID (120 h, time 5 day): 2.17 mg/dL | ABSOLUTE BASOPHIL ([…], time 14 day): 0 CELLS/uL | ABSOLUTE EOSINOPHIL ([…], time 14 day): 45.6 CELLS/uL | ABSOLUTE LYMPHOCYTE ([…], time 14 day): 15398.2 CELLS/uL | ABSOLUTE MONOCYTE ([…], time 14 day): 562 CELLS/uL | ABSOLUTE SEGMENTED NEUTROPHIL ([…], time 14 day): 3234.2 CELLS/uL | BASOPHIL ([…], time 14 day): 0% | EOSINOPHIL ([…], time 14 day): 0.2% | ERYTHROCYTE COUNT ([…], time 14 day): 6.59 x10E6/uL | HEMATOCRIT ([…], time 14 day): 38.5% | HEMOGLOBIN ([…], time 14 day): 14.08 G/DL | LEUKOCYTE COUNT ([…], time 14 day): 19.24 x10E3/uL | LYMPHOCYTE ([…], time 14 day): 80.6% | MEAN CORPUSCULAR HEMOGLOBIN ([…], time 14 day): 21.36 pg | MEAN CORPUSCULAR HEMOGLOBIN CONCENTRATION ([…], time 14 day): 36.56 G/DL | MEAN CORPUSCULAR VOLUME ([…], time 14 day): 58.42 fL | MONOCYTE ([…], time 14 day): 3% | NEUTROPHIL ([…], time 14 day): 16.2% | NUCLEATED RED BLOOD CELLS ([…], time 14 day): 0 /100WBC | PLATELET COUNT ([…], time 14 day): 980.2 x10E3/uL | ALANINE AMINOTRANSFERASE ([…], time 14 day): 57.6 u/L | ALBUMIN ([…], time 14 day): 4.18 G/DL | ALKALINE PHOSPHATASE ([…], time 14 day): 349 u/L | ASPARTATE AMINOTRANSFERASE ([…], time 14 day): 86 u/L | BLOOD UREA NITROGEN ([…], time 14 day): 15.8 mg/dL | CARBON DIOXIDE ([…], time 14 day): 30 mmol/L | CHLORIDE ([…], time 14 day): 102.6 MEQ/L | CHOLESTEROL ([…], time 14 day): 72.4 mg/dL | CREATININE ([…], time 14 day): 0.22 mg/dL | GLUCOSE ([…], time 14 day): 187.4 mg/dL | LACTATE DEHYDROGENASE ([…], time 14 day): 105.4 u/L | LIPASE ([…], time 14 day): 8.8 u/L | PHOSPHORUS ([…], time 14 day): 13.42 mg/dL | POTASSIUM ([…], time 14 day): 7.42 MEQ/L | SODIUM ([…], time 14 day): 147.96 MEQ/L | TOTAL BILIRUBIN ([…], time 14 day): 0.16 mg/dL | TOTAL PROTEIN ([…], time 14 day): 6.34 G/DL | URIC ACID ([…], time 14 day): 2.42 mg/dL
